Test results: ChEMBL document CHEMBL4177586, “Small molecule adjuvants that suppress both chromosomal and mcr-1 encoded colistin-resistance and amplify colistin efficacy in polymyxin-susceptible bacteria” (Bioorg Med Chem, 2017)
Values after ≈ are worked out from the molar mass of the structure shown. Active and inactive are the calls of the source. No cut-off for these calls is given here.

What was measured:
Klebsiella pneumoniae [1] = experiment: Potentiation of colistin-induced antimicrobial activity against colistin-resistant Klebsiella pneumoniae C5 assessed as colistin MIC at 60 uM incubated for overnight duration by CLSI based method (reference value: 128 ug/ml); assay type: functional
Klebsiella pneumoniae [2] = experiment: Potentiation of colistin-induced antimicrobial activity against colistin-resistant Klebsiella pneumoniae C3 assessed as reduction in colistin MIC at 30 uM incubated for overnight duration by CLSI based method relative to colistin alone control; assay type: functional
Klebsiella pneumoniae [3] = experiment: Potentiation of colistin-induced antimicrobial activity against colistin-resistant Klebsiella pneumoniae B9 assessed as colistin MIC at 15 uM incubated for overnight duration by CLSI based method (reference value: 512 ug/ml); assay type: functional
Klebsiella pneumoniae [4] = experiment: Potentiation of colistin-induced antimicrobial activity against colistin-resistant Klebsiella pneumoniae C5 assessed as colistin MIC at 30 uM incubated for overnight duration by CLSI based method (reference value: 128 ug/ml); assay type: functional
Acinetobacter baumannii [5] = experiment: Potentiation of colistin-induced antimicrobial activity against Acinetobacter baumannii ATCC 17978 expressing mcr1 gene assessed as reduction in colistin MIC at 60 uM incubated for overnight duration by CLSI based method relative to colistin alone control; assay type: functional
Escherichia coli [6] = experiment: Potentiation of colistin-induced antimicrobial activity against Escherichia coli ATCC 25922 expressing mcr1 gene assessed as reduction in colistin MIC at 15 uM incubated for overnight duration by CLSI based method relative to colistin alone control; assay type: functional
Acinetobacter baumannii [7] = experiment: Potentiation of colistin-induced antimicrobial activity against colistin-resistant Acinetobacter baumannii PM3941 assessed as colistin MIC at 30 uM incubated for overnight duration by CLSI based method (reference value: 512 ug/ml); assay type: functional
Acinetobacter baumannii [8] = experiment: Potentiation of colistin-induced antimicrobial activity against colistin-resistant Acinetobacter baumannii PM4119 assessed as colistin MIC at 60 uM incubated for overnight duration by CLSI based method (reference value: 1024 ug/ml); assay type: functional
Acinetobacter baumannii [9] = experiment: Potentiation of colistin-induced antimicrobial activity against colistin-resistant Acinetobacter baumannii PM4112 assessed as colistin MIC at 60 uM incubated for overnight duration by CLSI based method (reference value: 1024 ug/ml); assay type: functional
Klebsiella pneumoniae [10] = experiment: Potentiation of colistin-induced antimicrobial activity against Klebsiella pneumoniae 2210291 expressing mcr1 gene assessed as colistin MIC at 60 uM incubated for overnight duration by CLSI based method (reference value: 16 ug/ml); assay type: functional
Klebsiella pneumoniae [11] = experiment: Potentiation of colistin-induced antimicrobial activity against colistin-resistant Klebsiella pneumoniae C5 assessed as colistin MIC at 15 uM incubated for overnight duration by CLSI based method (reference value: 128 ug/ml); assay type: functional
Acinetobacter baumannii [12] = experiment: Potentiation of colistin-induced antimicrobial activity against colistin-resistant Acinetobacter baumannii PM3942 assessed as colistin MIC at 60 uM incubated for overnight duration by CLSI based method (reference value: 512 ug/ml); assay type: functional
Acinetobacter baumannii [13] = experiment: Potentiation of colistin-induced antimicrobial activity against colistin-resistant Acinetobacter baumannii PM4112 assessed as colistin MIC at 15 uM incubated for overnight duration by CLSI based method (reference value: 1024 ug/ml); assay type: functional
Acinetobacter baumannii [14] = experiment: Potentiation of colistin-induced antimicrobial activity against Acinetobacter baumannii SM1536 expressing mcr1 gene assessed as reduction in colistin MIC at 15 uM incubated for overnight duration by CLSI based method relative to colistin alone control; assay type: functional
Acinetobacter baumannii [15] = experiment: Potentiation of colistin-induced antimicrobial activity against Acinetobacter baumannii SM1536 assessed as reduction in colistin MIC at 30 uM incubated for overnight duration by CLSI based method relative to colistin alone control; assay type: functional
Acinetobacter baumannii [16] = experiment: Potentiation of colistin-induced antimicrobial activity against Acinetobacter baumannii SM1536 expressing mcr1 gene assessed as colistin MIC at 60 uM incubated for overnight duration by CLSI based method (reference value: 64 ug/ml); assay type: functional
Escherichia coli [17] = experiment: Potentiation of colistin-induced antimicrobial activity against Escherichia coli ATCC 25922 expressing mcr1 gene assessed as reduction in colistin MIC at 60 uM incubated for overnight duration by CLSI based method relative to colistin alone control; assay type: functional
Acinetobacter baumannii [18] = experiment: Potentiation of colistin-induced antimicrobial activity against Acinetobacter baumannii SM1536 expressing mcr1 gene assessed as colistin MIC at 15 uM incubated for overnight duration by CLSI based method (reference value: 64 ug/ml); assay type: functional
Acinetobacter baumannii [19] = experiment: Potentiation of colistin-induced antimicrobial activity against colistin-resistant Acinetobacter baumannii PM4119 assessed as colistin MIC at 15 uM incubated for overnight duration by CLSI based method (reference value: 1024 ug/ml); assay type: functional
Escherichia coli [20] = experiment: Potentiation of colistin-induced antimicrobial activity against Escherichia coli YD626 expressing mcr1 gene assessed as colistin MIC at 60 uM incubated for overnight duration by CLSI based method (reference value: 4 ug/ml); assay type: functional
Escherichia coli [21] = experiment: Potentiation of colistin-induced antimicrobial activity against Escherichia coli ATCC 25922 expressing mcr1 gene assessed as reduction in colistin MIC at 30 uM incubated for overnight duration by CLSI based method relative to colistin alone control; assay type: functional
Acinetobacter baumannii [22] = experiment: Potentiation of colistin-induced antimicrobial activity against colistin-resistant Acinetobacter baumannii PM3941 assessed as colistin MIC at 15 uM incubated for overnight duration by CLSI based method (reference value: 512 ug/ml); assay type: functional
Klebsiella pneumoniae [23] = experiment: Potentiation of colistin-induced antimicrobial activity against colistin-resistant Klebsiella pneumoniae C5 assessed as reduction in colistin MIC at 30 uM incubated for overnight duration by CLSI based method relative to colistin alone control; assay type: functional
Klebsiella pneumoniae [24] = experiment: Potentiation of colistin-induced antimicrobial activity against colistin-resistant Klebsiella pneumoniae C3 assessed as colistin MIC at 30 uM incubated for overnight duration by CLSI based method (reference value: 512 ug/ml); assay type: functional
Klebsiella pneumoniae [25] = experiment: Potentiation of colistin-induced antimicrobial activity against Klebsiella pneumoniae 2210291 expressing mcr1 gene assessed as colistin MIC at 30 uM incubated for overnight duration by CLSI based method (reference value: 16 ug/ml); assay type: functional
Klebsiella pneumoniae [26] = experiment: Potentiation of colistin-induced antimicrobial activity against colistin-resistant Klebsiella pneumoniae B9 assessed as colistin MIC at 60 uM incubated for overnight duration by CLSI based method (reference value: 512 ug/ml); assay type: functional
Acinetobacter baumannii [27] = experiment: Reduction in lipid A modification in Acinetobacter baumannii ATCC 17978 at 30 uM incubated for 24 hrs by MALDI-TOF mass spectrometry; assay type: functional, organism-based
Klebsiella pneumoniae [28] = experiment: Toxicity against Klebsiella pneumoniae 2210291 expressing mcr1 gene incubated for overnight duration by CLSI based method; assay type: organism-based; details: in vivo
Escherichia coli [29] = experiment: Toxicity against Escherichia coli YD626 expressing mcr1 gene incubated for overnight duration by CLSI based method; assay type: organism-based; details: in vivo
Acinetobacter baumannii [30] = experiment: Toxicity against Acinetobacter baumannii ATCC 17978 expressing mcr1 gene incubated for overnight duration by CLSI based method; assay type: organism-based; details: in vivo
Acinetobacter baumannii [31] = experiment: Toxicity against Acinetobacter baumannii SM1536 expressing mcr1 gene incubated for overnight duration by CLSI based method; assay type: organism-based; details: in vivo
Escherichia coli [32] = experiment: Toxicity against Escherichia coli ATCC 25922 expressing mcr1 gene incubated for overnight duration by CLSI based method; assay type: organism-based; details: in vivo
Acinetobacter baumannii [33] = experiment: Toxicity against multidrug resistant Acinetobacter baumannii BAA1605 incubated for overnight duration by CLSI based method; assay type: organism-based; details: in vivo

Structure (SMILES) | fold change (FC) (Escherichia coli [6]) | fold change (FC) (Acinetobacter baumannii [14]) | fold change (FC) (Acinetobacter baumannii [15]) | MIC (Acinetobacter baumannii [18]) [µg/mL] | fold change (FC) (Escherichia coli [21]) | MIC (Klebsiella pneumoniae [25]) [µg/mL] | MIC (Klebsiella pneumoniae [28]) [µM] | MIC (Escherichia coli [29]) [µM] | MIC (Acinetobacter baumannii [30]) [µM] | MIC (Acinetobacter baumannii [31]) [µM] | MIC (Escherichia coli [32]) [µM] | also measured
CCCCCc1ccc(C(=O)NCCn2cc(CCCCCc3cnc(N)n3Cc3ccc(CCCC)cc3)nn2)cc1 | 16 | 8 | >2048 | 8 | 32 | 0.25 |  |  |  |  |  | MIC (Klebsiella pneumoniae [1]): 2 µg/mL; fold change (FC) (Klebsiella pneumoniae [2]): 32; MIC (Klebsiella pneumoniae [3]): 32 µg/mL; MIC (Klebsiella pneumoniae [4]): 4 µg/mL; fold change (FC) (Acinetobacter baumannii [5]): 64; MIC (Acinetobacter baumannii [7]): 16 µg/mL; MIC (Acinetobacter baumannii [8]): 2 µg/mL; MIC (Acinetobacter baumannii [9]): 8 µg/mL; MIC (Klebsiella pneumoniae [10]): 0.125 µg/mL; MIC (Klebsiella pneumoniae [11]): 32 µg/mL; MIC (Acinetobacter baumannii [12]): 4 µg/mL; MIC (Acinetobacter baumannii [13]): 32 µg/mL; MIC (Acinetobacter baumannii [16]): 1 µg/mL; fold change (FC) (Escherichia coli [17]): 256; MIC (Acinetobacter baumannii [19]): 16 µg/mL; MIC (Escherichia coli [20]): < 0.002 µg/mL; MIC (Acinetobacter baumannii [22]): 32 µg/mL; fold change (FC) (Klebsiella pneumoniae [23]): 32; MIC (Klebsiella pneumoniae [24]): 16 µg/mL; MIC (Klebsiella pneumoniae [26]): 4 µg/mL
CCCCCCc1ccc(-c2cn(C(C)C)c(N)n2)cc1 | 0 | 4 | 128 | 8 | 512 | 0.5 | > 200 | > 200 | > 200 | > 200 | > 200 | Activity (Acinetobacter baumannii [27]): Active
CCCCCCc1ccc(-c2cn(CC)c(N)n2)cc1 | 2 | 8 | 256 | 8 | >2048 | 0.125 | > 200 | 100 (≈ 27.1 µg/mL) | > 200 | > 200 | 50 (≈ 13.6 µg/mL) | MIC (Acinetobacter baumannii [33]): 200 µM (≈ 54.3 µg/mL)
